Experimental data reported in US20090227607A1, “DEAZAPURINES USEFUL AS INHIBITORS OF JANUS KINASES” (priority 2006, published 2009).

These compounds were tested against JAK-2 enzyme (Homo sapiens, UniProt O60674) (assay: JAK2 Inhibition Assay). Conditions: 15 μM poly(Glu)4Tyr, 12 μM ATP, 25° C.
Assay type: biochemical
Method: (§1) Compounds were screened for their ability to inhibit JAK3 using the assay shown below. Reactions were carried out in a kinase buffer containing 100 mM HEPES (pH 7.4), 1 mM DTT, 10 mM MgCl2, 25 mM NaCl, and 0.01% BSA. Substrate concentrations in the assay were 5 μM ATP (200 uCi/μmole ATP) and 1 μM poly(Glu)4Tyr. Reactions were carried out at 25° C. and 1 nM JAK3.
(§2) To each well of a 96 well polycarbonate plate was added 1.5 μl of a candidate JAK3 inhibitor along with 50 μl of kinase buffer containing 2 μM poly(Glu)4Tyr and […]. This was then mixed and […] of kinase buffer containing 2 nM JAK3 enzyme was added to start the reaction. After 20 minutes at room temperature (25° C.), the reaction was stopped with 50 μl of 20% trichloroacetic acid (TCA) that also contained 0.4 mM ATP. The entire contents of each well were then transferred to a 96 well glass fiber filter plate using a TomTek Cell Harvester. After washing, 60 μl of scintillation fluid was added and ^33P incorporation detected on a Perkin Elmer TopCount.
The assays were as described above in Example 36 except that JAK-2 enzyme was used, the final poly(Glu)4Tyr concentration was 15 μM, and final ATP concentration was 12 μM.
(§3) Tables 5 and 6 depict enzyme inhibition data (Ki) for certain exemplary compounds. Compound numbers in Tables 5 and 6 correspond to those compounds depicted in Tables 1 and 2, respectively.

Chain of JAK-2 enzyme (O60674 whole entry, species assumed): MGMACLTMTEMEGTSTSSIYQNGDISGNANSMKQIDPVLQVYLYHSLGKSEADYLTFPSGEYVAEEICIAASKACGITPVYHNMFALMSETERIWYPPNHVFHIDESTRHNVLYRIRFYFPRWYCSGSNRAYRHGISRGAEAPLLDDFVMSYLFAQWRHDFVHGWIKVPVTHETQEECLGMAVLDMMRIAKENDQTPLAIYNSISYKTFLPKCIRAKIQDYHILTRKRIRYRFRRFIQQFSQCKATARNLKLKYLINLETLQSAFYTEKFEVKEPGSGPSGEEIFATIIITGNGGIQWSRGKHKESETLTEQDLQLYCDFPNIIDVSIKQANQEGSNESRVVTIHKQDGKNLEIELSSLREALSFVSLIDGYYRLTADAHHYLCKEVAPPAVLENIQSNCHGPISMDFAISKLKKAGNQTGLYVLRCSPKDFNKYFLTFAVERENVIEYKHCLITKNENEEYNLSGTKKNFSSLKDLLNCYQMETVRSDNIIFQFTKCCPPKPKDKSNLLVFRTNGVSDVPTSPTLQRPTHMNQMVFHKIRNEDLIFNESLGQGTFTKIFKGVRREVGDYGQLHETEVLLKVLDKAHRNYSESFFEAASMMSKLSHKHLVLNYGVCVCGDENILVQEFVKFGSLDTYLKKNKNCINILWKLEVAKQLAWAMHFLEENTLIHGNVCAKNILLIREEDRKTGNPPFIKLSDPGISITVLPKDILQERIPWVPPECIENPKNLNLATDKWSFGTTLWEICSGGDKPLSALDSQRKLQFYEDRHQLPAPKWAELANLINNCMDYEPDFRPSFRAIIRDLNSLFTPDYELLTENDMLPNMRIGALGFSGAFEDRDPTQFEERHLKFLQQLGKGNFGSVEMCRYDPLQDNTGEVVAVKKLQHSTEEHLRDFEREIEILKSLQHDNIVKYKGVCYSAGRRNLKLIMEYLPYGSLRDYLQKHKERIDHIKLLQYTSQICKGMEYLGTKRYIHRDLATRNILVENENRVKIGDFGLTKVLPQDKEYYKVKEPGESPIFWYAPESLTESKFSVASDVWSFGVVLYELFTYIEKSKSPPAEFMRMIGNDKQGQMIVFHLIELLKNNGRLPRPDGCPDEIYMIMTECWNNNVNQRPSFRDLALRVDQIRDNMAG

| SMILES | Ki |
| --- | --- |
| O=C(Nc1nc(-c2ncnc3[nH]ccc23)cs1)C1CCC1 [Compound 57] | < 100 nM |
| CC1CC1C(=O)Nc1nc(-c2ncnc3[nH]ccc23)cs1 (stereo not drawn) [Compound 58] | < 100 nM |
| O=C(Nc1nc(-c2ncnc3[nH]ccc23)cs1)C1CC=CC1 [Compound 59] | < 100 nM |
| O=C(Nc1nc(-c2ncnc3[nH]ccc23)cs1)C1CCCC1O (stereo not drawn) [Compound 60] | < 100 nM |
| O=C(Nc1nc(-c2ncnc3[nH]ccc23)cs1)C1CCOCC1 [Compound 61] | < 100 nM |
| CC1CCC(C(=O)Nc2nc(-c3ncnc4[nH]ccc34)cs2)CC1 (stereo not drawn) [Compound 62] | < 100 nM |
| COC1CCCC(C(=O)Nc2nc(-c3ncnc4[nH]ccc34)cs2)C1 (stereo not drawn) [Compound 63] | < 100 nM |
| O=C(CC(F)(F)F)Nc1nc(-c2ncnc3[nH]ccc23)cs1 [Compound 64] | < 100 nM |
| O=C1CCC(C(=O)Nc2nc(-c3ncnc4[nH]ccc34)cs2)CC1 [Compound 65] | < 100 nM |
| CC(C)(C)CC(=O)Nc1nc(-c2ncnc3[nH]ccc23)cs1 [Compound 66] | < 100 nM |
| O=C(CCC1CCCC1)Nc1nc(-c2ncnc3[nH]ccc23)cs1 [Compound 67] | < 100 nM |
| O=C(CCc1ccccc1)Nc1nc(-c2ncnc3[nH]ccc23)cs1 [Compound 68] | < 100 nM |
| C=CCCC(=O)Nc1nc(-c2ncnc3[nH]ccc23)cs1 [Compound 69] | < 100 nM |

Results, then the compound that gave them:

| Ki | SMILES |
| --- | --- |
| < 100 nM | O=C(CC1CC1)Nc1nc(-c2ncnc3[nH]ccc23)cs1 [Compound 70] |
| < 100 nM | CC(=O)CCC(=O)Nc1nc(-c2ncnc3[nH]ccc23)cs1 [Compound 71] |
| < 100 nM | CC(C)CCC(=O)Nc1nc(-c2ncnc3[nH]ccc23)cs1 [Compound 72] |
| 100 to 500 nM | CC(C(=O)NC1CC1)n1cc(-c2ncnc3[nH]ccc23)cn1 (stereo not drawn) [Compound 73] |
| 100 to 500 nM | CC(C)CNC(=O)C(C)n1cc(-c2ncnc3[nH]ccc23)cn1 (stereo not drawn) [Compound 74] |
| 100 to 500 nM | CC(C(=O)NC1CCCC1)n1cc(-c2ncnc3[nH]ccc23)cn1 (stereo not drawn) [Compound 75] |
| 500 to 5000 nM | CC(C(=O)NCC1CCCO1)n1cc(-c2ncnc3[nH]ccc23)cn1 (stereo not drawn) [Compound 76] |
| 100 to 500 nM | CC(C(=O)N(C)C)n1cc(-c2ncnc3[nH]ccc23)cn1 (stereo not drawn) [Compound 77] |
| 100 to 500 nM | CC(C)NC(=O)C(C)n1cc(-c2ncnc3[nH]ccc23)cn1 (stereo not drawn) [Compound 78] |
| 500 to 5000 nM | CC(CO)NC(=O)C(C)n1cc(-c2ncnc3[nH]ccc23)cn1 (stereo not drawn) [Compound 79] |
| 500 to 5000 nM | CC(O)CNC(=O)C(C)n1cc(-c2ncnc3[nH]ccc23)cn1 (stereo not drawn) [Compound 80] |
| 500 to 5000 nM | COCCNC(=O)C(C)n1cc(-c2ncnc3[nH]ccc23)cn1 (stereo not drawn) [Compound 81] |
| 100 to 500 nM | CCC(CO)NC(=O)C(C)n1cc(-c2ncnc3[nH]ccc23)cn1 (stereo not drawn) [Compound 82] |
| 500 to 5000 nM | CCC(O)CNC(=O)C(C)n1cc(-c2ncnc3[nH]ccc23)cn1 (stereo not drawn) [Compound 83] |

What follows are compounds tested against T1, JAK3 (Homo sapiens, UniProt P52333) (assay: JAK3 Inhibition Assay). Conditions: 1 μM poly(Glu)4Tyr, 5 μM ATP, 1 nM JAK3, 25° C.; read-out: JAK3 enzyme inhibition data (Ki).
T1 sequence (P52333 1-1124): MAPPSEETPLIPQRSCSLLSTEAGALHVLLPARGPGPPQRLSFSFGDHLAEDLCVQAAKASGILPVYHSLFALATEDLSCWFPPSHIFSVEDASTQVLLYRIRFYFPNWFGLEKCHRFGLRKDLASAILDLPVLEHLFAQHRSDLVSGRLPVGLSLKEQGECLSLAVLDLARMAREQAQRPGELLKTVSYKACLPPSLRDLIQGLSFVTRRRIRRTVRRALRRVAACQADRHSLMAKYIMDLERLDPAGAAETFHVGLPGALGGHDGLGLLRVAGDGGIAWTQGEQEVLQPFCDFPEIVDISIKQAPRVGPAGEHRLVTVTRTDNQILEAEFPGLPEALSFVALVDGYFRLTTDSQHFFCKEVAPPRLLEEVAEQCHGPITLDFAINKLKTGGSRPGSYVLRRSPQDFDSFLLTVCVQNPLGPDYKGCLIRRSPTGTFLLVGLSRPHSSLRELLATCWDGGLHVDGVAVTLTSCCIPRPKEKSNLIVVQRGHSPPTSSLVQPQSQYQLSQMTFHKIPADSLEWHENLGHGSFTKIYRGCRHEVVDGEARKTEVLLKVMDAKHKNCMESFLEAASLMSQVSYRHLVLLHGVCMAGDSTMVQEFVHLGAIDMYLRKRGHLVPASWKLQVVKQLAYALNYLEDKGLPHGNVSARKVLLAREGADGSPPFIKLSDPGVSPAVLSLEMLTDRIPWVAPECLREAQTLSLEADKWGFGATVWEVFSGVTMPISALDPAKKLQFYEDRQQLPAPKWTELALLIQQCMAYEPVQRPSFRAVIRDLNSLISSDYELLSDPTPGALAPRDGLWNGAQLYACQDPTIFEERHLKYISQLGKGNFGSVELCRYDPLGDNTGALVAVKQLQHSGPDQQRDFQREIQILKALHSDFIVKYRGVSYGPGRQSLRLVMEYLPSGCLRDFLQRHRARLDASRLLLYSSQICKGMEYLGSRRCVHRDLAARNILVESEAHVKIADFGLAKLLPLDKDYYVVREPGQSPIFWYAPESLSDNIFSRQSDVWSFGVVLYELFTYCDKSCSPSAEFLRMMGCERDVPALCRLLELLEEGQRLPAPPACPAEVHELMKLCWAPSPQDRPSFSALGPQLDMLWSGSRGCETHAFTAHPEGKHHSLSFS
Assay type: biochemical
Method: as §1, §2, §3

| SMILES | Ki |
| --- | --- |
| O=C(Nc1nc(-c2ncnc3[nH]ccc23)cs1)C1CCC1 [Compound 57] | < 100 nM |
| CC1CC1C(=O)Nc1nc(-c2ncnc3[nH]ccc23)cs1 (stereo not drawn) [Compound 58] | < 100 nM |
| O=C(Nc1nc(-c2ncnc3[nH]ccc23)cs1)C1CC=CC1 [Compound 59] | < 100 nM |
| O=C(Nc1nc(-c2ncnc3[nH]ccc23)cs1)C1CCCC1O (stereo not drawn) [Compound 60] | < 100 nM |
| O=C(Nc1nc(-c2ncnc3[nH]ccc23)cs1)C1CCOCC1 [Compound 61] | < 100 nM |
| CC1CCC(C(=O)Nc2nc(-c3ncnc4[nH]ccc34)cs2)CC1 (stereo not drawn) [Compound 62] | 100 to 500 nM |
| COC1CCCC(C(=O)Nc2nc(-c3ncnc4[nH]ccc34)cs2)C1 (stereo not drawn) [Compound 63] | 100 to 500 nM |
| O=C(CC(F)(F)F)Nc1nc(-c2ncnc3[nH]ccc23)cs1 [Compound 64] | < 100 nM |
| O=C1CCC(C(=O)Nc2nc(-c3ncnc4[nH]ccc34)cs2)CC1 [Compound 65] | < 100 nM |
| CC(C)(C)CC(=O)Nc1nc(-c2ncnc3[nH]ccc23)cs1 [Compound 66] | < 100 nM |
| O=C(CCC1CCCC1)Nc1nc(-c2ncnc3[nH]ccc23)cs1 [Compound 67] | < 100 nM |
| O=C(CCc1ccccc1)Nc1nc(-c2ncnc3[nH]ccc23)cs1 [Compound 68] | < 100 nM |
| C=CCCC(=O)Nc1nc(-c2ncnc3[nH]ccc23)cs1 [Compound 69] | < 100 nM |

The next lines start with the values.

| Ki | SMILES |
| --- | --- |
| < 100 nM | O=C(CC1CC1)Nc1nc(-c2ncnc3[nH]ccc23)cs1 [Compound 70] |
| 100 to 500 nM | CC(=O)CCC(=O)Nc1nc(-c2ncnc3[nH]ccc23)cs1 [Compound 71] |
| < 100 nM | CC(C)CCC(=O)Nc1nc(-c2ncnc3[nH]ccc23)cs1 [Compound 72] |
| 100 to 500 nM | CC(C(=O)NC1CC1)n1cc(-c2ncnc3[nH]ccc23)cn1 (stereo not drawn) [Compound 73] |
| < 100 nM | CC(C)CNC(=O)C(C)n1cc(-c2ncnc3[nH]ccc23)cn1 (stereo not drawn) [Compound 74] |
| < 100 nM | CC(C(=O)NC1CCCC1)n1cc(-c2ncnc3[nH]ccc23)cn1 (stereo not drawn) [Compound 75] |
| 500 to 5000 nM | CC(C(=O)NCC1CCCO1)n1cc(-c2ncnc3[nH]ccc23)cn1 (stereo not drawn) [Compound 76] |
| 500 to 5000 nM | CC(C(=O)N(C)C)n1cc(-c2ncnc3[nH]ccc23)cn1 (stereo not drawn) [Compound 77] |
| 100 to 500 nM | CC(C)NC(=O)C(C)n1cc(-c2ncnc3[nH]ccc23)cn1 (stereo not drawn) [Compound 78] |
| 100 to 500 nM | CC(CO)NC(=O)C(C)n1cc(-c2ncnc3[nH]ccc23)cn1 (stereo not drawn) [Compound 79] |
| 100 to 500 nM | CC(O)CNC(=O)C(C)n1cc(-c2ncnc3[nH]ccc23)cn1 (stereo not drawn) [Compound 80] |
| 500 to 5000 nM | COCCNC(=O)C(C)n1cc(-c2ncnc3[nH]ccc23)cn1 (stereo not drawn) [Compound 81] |
| 100 to 500 nM | CCC(CO)NC(=O)C(C)n1cc(-c2ncnc3[nH]ccc23)cn1 (stereo not drawn) [Compound 82] |
| 100 to 500 nM | CCC(O)CNC(=O)C(C)n1cc(-c2ncnc3[nH]ccc23)cn1 (stereo not drawn) [Compound 83] |
